Experimental findings from patent US4774381A, “Herbicide resistant tobacco” (E. I. Du Pont de Nemours and Company, priority 1985, dated 1988) are described below.

Common to all, as to assay: ALS activity assay in cell extracts
Assay [1] deals with T1, acetolactate synthase (ALS), Isolate 7 (+/+) extract (Nicotiana tabacum, UniProt P09114).
T1 construct: ALS activity was then assayed in extracts prepared from these cell suspension cultures; endogenous in cells; host or cells: N. tabacum cv; Xanthi cell suspension cultures (H1 parental haploid line; +/+ segregants), 0-50% ammonium sulfate fraction of the extract
T1 sequence (P09114 92-664): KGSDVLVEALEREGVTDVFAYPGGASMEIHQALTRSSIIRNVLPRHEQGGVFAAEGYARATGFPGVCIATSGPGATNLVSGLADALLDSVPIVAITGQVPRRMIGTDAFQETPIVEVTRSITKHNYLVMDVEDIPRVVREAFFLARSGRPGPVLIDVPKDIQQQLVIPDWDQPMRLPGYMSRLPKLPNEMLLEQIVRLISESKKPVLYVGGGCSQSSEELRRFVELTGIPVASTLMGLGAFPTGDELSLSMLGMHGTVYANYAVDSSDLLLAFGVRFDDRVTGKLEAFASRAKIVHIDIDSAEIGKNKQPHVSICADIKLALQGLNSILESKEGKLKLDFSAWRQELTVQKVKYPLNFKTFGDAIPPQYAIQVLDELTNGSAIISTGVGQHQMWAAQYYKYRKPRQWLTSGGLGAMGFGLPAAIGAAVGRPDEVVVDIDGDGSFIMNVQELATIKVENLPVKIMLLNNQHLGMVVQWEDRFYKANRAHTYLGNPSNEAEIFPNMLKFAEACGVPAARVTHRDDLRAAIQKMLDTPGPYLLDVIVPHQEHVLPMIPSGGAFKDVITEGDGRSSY
The assay is classed as biochemical. The note with it: read-out: Uninhibited activity (%) in the Presence of Chlorsulfuron. On the procedure:
(§1) Cell suspension cultures of normal (H1) and homozygous mutant (Isolate 16) cell lines were washed in C1 liquid medium. After washing, cells were extracted in a 100 mM potassium phosphate buffer (pH 7.5) containing 0.5 mM MgCl2, 1 mM sodium pyruvate, 0.5 mM thiamine pyrophosphate, 10 micromolar flavine-adenine dinucleotide (FAD) and 10 percent (by volume) glycerol. Polyclar AT (BDH Chemicals Ltd) was added to a final concentration of 250 mg per gram fresh weight of tissue. After centrifugation at 27,000xg for 15 minutes at 4°, an equal volume of a saturated solution of amminium sulfate was added to the supernatant fraction. The resultant precipitate (representing a 0 to 50 percent ammonium sulfate fraction) was redissolved in 100 mM potassium phosphate buffer (pH 7.5) containing 0.5 mM MgCl2, 1 mM sodium pyruvate, and salts were removed by passage through a Sephadex G-25 (Pharmacia PD-10) column.
ALS activity was assayed in a total volume of 500 microliters containing 100 microliters of the column eluate, 65 mM potassium phosphate buffer (pH 7.5) containing 10 mM MgCl2, 40 mM sodium pyruvate, 250 micromolar thiamine pyrophosphate, 23 micromolar FAD, and 1, 5, 10, 50, 100, 500 or 1000 ppb chlorsulfuron or sulfometuron-methyl. […] Acetoin content was then measured by a modification of the procedure described by Westerfield, J. Biol. Chem. 161:495 (1945). […] Tubes were then centrifuged, and the optical density was read at 530 nm. Background optical densities, which were subtracted from the optical density values of the reactions, were determined for each extract from parallel assays to which the enzyme extract was added after the addition of 6N H2 SO4. Protein concentrations were measured with Bio-Rad Protein Assay reagent with bovine serum albumin as a standard. […]
Responses to chlorsulfuron were determined for ALS activities in extracts of cells suspension cultures derived from nine individuals that differed with resepct to the S4 mutation. […] Callus and plant phenotypes were determined by growth responses of cell cultures and seedlings, respectively, on herbicide-supplemented medium. […]

Assay [2] relates to acetolactate synthase (ALS), Isolate 1 (+/+) extract. The assay is classed as biochemical, Nicotiana tabacum. On the procedure:
as §1
(§2) ALS activity was assayed in a total volume of 500 microliters containing 100 microliters of the column eluate, 65 mM potassium phosphate buffer (pH 7.5) containing 10 mM MgCl2, 40 mM sodium pyruvate, 250 micromolar thiamine pyrophosphate, 23 micromolar FAD, and 1, 5, 10, 50, 100, 500 or 1000 ppb chlorsulfuron or sulfometuron-methyl. After incubation at 30° for 90 minutes, 250 microliters of 6N H2 SO4 was added to each assay tube, and the tubes were incubated at 55° for 10 minutes to terminate the enzymatic reaction and achieve complete conversion of acetolactate to acetoin. Acetoin content was then measured by a modification of the procedure described by Westerfield, J. Biol. Chem. 161:495 (1945). To each tube was added sequentially 100 microliters 50 percent NaOH, 150 microliters 0.5 percent creatine, and 150 microliters 5 percent alpha-napthol (in 2.5N NaOH). Color development was accelerated by incubation at 55° for 10 minutes. Tubes were then centrifuged, and the optical density was read at 530 nm. Background optical densities, which were subtracted from the optical density values of the reactions, were determined for each extract from parallel assays to which the enzyme extract was added after the addition of 6N H2 SO4. Protein concentrations were measured with Bio-Rad Protein Assay reagent with bovine serum albumin as a standard. Data points and specific activities, which are set forth below and in FIG. 2, represent the average values of at least three independent determinations. ALS activities are presented in FIG. 2 as percent activity in the absence of herbicide.
(§3) Responses to chlorsulfuron were determined for ALS activities in extracts of cells suspension cultures derived from nine individuals that differed with resepct to the S4 mutation. As described above, these individuals were produced by self-fertilization of an S4/+ heterozygote, and their genotypes were established by means of progeny analysis. Callus and plant phenotypes were determined by growth responses of cell cultures and seedlings, respectively, on herbicide-supplemented medium. […] In contrast, all individuals homozygous for the S4 mutation contained a highly resistant form of the enzyme. […] The correlation between both callus and plant phenotype and the response of ALS activity in vitro to the herbicide is both absolute and quantitative.

For assay [3], the system named is acetolactate synthase (ALS), Isolate 24 (S4/+) extract. The assay is classed as biochemical, Nicotiana tabacum. On the procedure:
as §1, §2, §3

In assay [4] the test system is acetolactate synthase (ALS), Isolate 27 (S4/S4) extract. The assay is classed as biochemical, Nicotiana tabacum. On the procedure:
as §1, §2, §3

Assay [5] concerns acetolactate synthase (ALS), Isolate 30 (S4/S4) extract. In kind it is biochemical, Nicotiana tabacum. On the procedure:
as §1, §2, §3

In the case of `COc1nc(C)nc(NC(=O)NS(=O)(=O)c2ccccc2Cl)n1` [Chlorsulfuron, chlorsulfuron], the remaining ALS activity (% of uninhibited) at 0.01 ppm in assay [1] (10 ppb) is 36%. Moreover, in assay [1] (30 ppb), the remaining ALS activity (% of uninhibited) at 0.03 ppm is 22%. Also, the remaining ALS activity (% of uninhibited) at 0.1 ppm in assay [1] (100 ppb) was determined as 16%. In addition, the “Uninhibited activity (%) in the Presence of Chlorsulfuron” value came to 42% in assay [2] (10 ppb); 29% in assay [2] (30 ppb); 23% in assay [2] (100 ppb); 60% in assay [3] (10 ppb); 47% in assay [3] (30 ppb); 41% in assay [3] (100 ppb). In addition, the “Uninhibited activity (%) in the Presence of Chlorsulfuron” value in assay [4] (10 ppb) turned out to be 88%; in assay [4] (30 ppb), 82%; in assay [4] (100 ppb), 79%; in assay [5] (10 ppb) it was 89%; in assay [5] (30 ppb) it was 83%; in assay [5] (100 ppb), 81%.
